Among the test systems are SNB-75; MCF7; SK-MEL-28; 786-0; OVCAR-3; CCRF-CEM; T47D; ACHN; MDA-MB-435; SNB-19; KM12; HCT-116; DU-145; SK-MEL-5; SW-620; UO-31; MDA-N; UACC-257; Malme-3M; HL-60.
What all share (test): NCI anticancer screen, dose series, 48 h

The structures appear in SMILES notation.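 Step 1: Grow cells in 96-well plates. Step 2: Expose to compound for 48 hours at 5 concentrations. Step 3: Interpolate endpoints linearly; if unreached, use highest concentration. The concentration for 50% growth inhibition is given as GI50.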 Activity calls are given as the source filed them. No stated cut-off is given here; in the data, active = GI50 up to about 1.1 µM and inactive = higher.

For `CC(C)(C)c1ccc(O)c(CN(Cc2c(O)ccc3ccccc23)C2CCCCC2)c1`, the GI50 was 16 µM (inactive) in the assay with SNB-75; 17.1 µM (inactive) in the assay on MCF7; 20.5 µM (inactive) in the assay on SK-MEL-28; 15.5 µM (inactive) with 786-0; 17.4 µM (inactive) in the assay on OVCAR-3; 13.9 µM (inactive) with CCRF-CEM. Also, the GI50 in the assay with T47D is 17.9 µM (inactive); in the assay on ACHN, 18.5 µM (inactive); in the assay on MDA-MB-435, 19.2 µM (inactive); in the assay with SNB-19 it was 18.5 µM (inactive); in the assay with KM12, 17.6 µM (inactive); in the assay with HCT-116, 16.9 µM (inactive). Also, the GI50 is 23.8 µM (inactive) in the assay with DU-145; 16.5 µM (inactive) with SK-MEL-5; 24.4 µM (inactive) with SW-620; 14.7 µM (inactive) in the assay on UO-31; 15.5 µM (inactive) in the assay with MDA-N; 15.7 µM (inactive) in the assay on UACC-257. Also, the GI50 with Malme-3M is 17.4 µM (inactive).
Turning to `CC1(C)CC(=O)c2[nH]c3ccccc3c2CC(=O)NCCc2cn1cn2`, the GI50 with SNB-75 is > 100 µM (inactive); in the assay on MCF7, > 100 µM (inactive); in the assay on SK-MEL-28 it was > 100 µM (inactive); in the assay with 786-0 it was 18.6 µM (inactive); in the assay on OVCAR-3 it was > 100 µM (inactive); in the assay on T47D, > 100 µM (inactive). For the same compound, the GI50 in the assay with ACHN was 61.1 µM (inactive); in the assay on MDA-MB-435, > 100 µM (inactive); in the assay on SNB-19 it was 28 µM (inactive); in the assay with KM12, > 100 µM (inactive); with HCT-116, > 100 µM (inactive); in the assay with DU-145, > 100 µM (inactive). The GI50 in the assay with SK-MEL-5, with SW-620, in the assay on UO-31, with MDA-N, with UACC-257 and in the assay on Malme-3M was > 100 µM (inactive) each time.
As for `N#CCCN(CCC#N)c1ccc(C(=N/c2ccc(Cl)cc2)/N=N/c2ccccc2)cc1`, the GI50 is 59.4 µM (inactive) in the assay with SNB-75; > 100 µM (inactive) with MCF7; > 100 µM (inactive) with SK-MEL-28; > 100 µM (inactive) in the assay on 786-0; 66.7 µM (inactive) in the assay with OVCAR-3; > 100 µM (inactive) with CCRF-CEM. For the same compound, the GI50 was 12.8 µM (inactive) with T47D; > 100 µM (inactive) with ACHN; 44.9 µM (inactive) with MDA-MB-435; > 100 µM (inactive) in the assay with SNB-19; 58.5 µM (inactive) in the assay on KM12; > 100 µM (inactive) in the assay with HCT-116. The GI50 in the assay with DU-145 is 88.5 µM (inactive); in the assay on SK-MEL-5 it was 10.3 µM (inactive); in the assay with SW-620, > 100 µM (inactive); in the assay with UO-31 it was 23.8 µM (inactive); in the assay with MDA-N it was > 100 µM (inactive); in the assay on UACC-257, 59.4 µM (inactive).
Turning to `COc1cc(OC)c(OC)cc1/C=C/c1cc[n+](C)c2ccccc12`, the GI50 was 47.4 µM (inactive) in the assay on SNB-75; 49.2 µM (inactive) with MCF7; > 100 µM (inactive) in the assay on SK-MEL-28; 25.2 µM (inactive) in the assay on 786-0; 14.8 µM (inactive) with CCRF-CEM; 33.4 µM (inactive) in the assay on T47D. Also, the GI50 with ACHN is > 100 µM (inactive); in the assay with SNB-19, 8.45 µM (inactive); with KM12 it was 19.8 µM (inactive); in the assay on HCT-116, 27.8 µM (inactive); in the assay on DU-145 it was 86.9 µM (inactive); with HL-60 it was 14 µM (inactive). Also, the GI50 was 11 µM (inactive) in the assay with SK-MEL-5; 36.2 µM (inactive) in the assay with SW-620; > 100 µM (inactive) with UO-31; 24.3 µM (inactive) in the assay on MDA-N; 16.1 µM (inactive) in the assay on UACC-257; > 100 µM (inactive) in the assay with Malme-3M.
Take `COc1ccc(C2c3cc4c(cc3OC(N3CCOCC3)C2C)OCO4)c(OC)c1OC` (stereo unspecified): the GI50 in the assay on MCF7 is 10.9 µM (inactive); with SK-MEL-28, 14.2 µM (inactive); in the assay with 786-0, 17.1 µM (inactive); in the assay on OVCAR-3, 11 µM (inactive); with CCRF-CEM it was 13 µM (inactive); in the assay with T47D, 20.6 µM (inactive). For the same compound, the GI50 in the assay with ACHN was 16.1 µM (inactive); with MDA-MB-435 it was 2.51 µM (inactive); in the assay on SNB-19, 10.7 µM (inactive); in the assay on KM12, 5.55 µM (inactive); in the assay on HCT-116, 10.3 µM (inactive); in the assay on DU-145, > 10 µM (inactive). Moreover, the GI50 in the assay on SK-MEL-5 was 10.1 µM (inactive); with SW-620, 11.1 µM (inactive); with UO-31, 6.81 µM (inactive); in the assay with MDA-N, 2.45 µM (inactive); with UACC-257, 15.9 µM (inactive).
Turning to `O=C(/C=C/c1ccc(O)c(O)c1)OCCOC(=O)/C=C/c1ccc(O)c(O)c1`, the GI50 in the assay on MCF7 was 34.5 µM (inactive); in the assay with SK-MEL-28 it was 36.4 µM (inactive); in the assay with 786-0, 42.3 µM (inactive); in the assay on OVCAR-3 it was 19.3 µM (inactive); in the assay with CCRF-CEM, 33.1 µM (inactive); in the assay on T47D it was 24.7 µM (inactive). For the same compound, the GI50 in the assay on ACHN is 31.3 µM (inactive); with MDA-MB-435 it was 31.3 µM (inactive); in the assay with SNB-19 it was 40.3 µM (inactive); in the assay on KM12, 17.6 µM (inactive); in the assay with HCT-116, 21.1 µM (inactive); in the assay with DU-145 it was 24.7 µM (inactive). For the same compound, the GI50 with SK-MEL-5 is 18.2 µM (inactive); with SW-620 it was 38.1 µM (inactive); with UO-31 it was 23.2 µM (inactive); in the assay on MDA-N it was 19.8 µM (inactive); in the assay on UACC-257 it was 17.9 µM (inactive); in the assay with Malme-3M, 42.1 µM (inactive).
As to `CC(C)[C@H]1NC(=O)[C@H]2N=C(S[C@H]2C)[C@@H]2CCCN2C(=O)[C@H](Cc2ccccc2)NC(=O)[C@@H]2CSC(=N2)[C@@H](Cc2ccccc2)NC(=O)[C@@H]2CSC1=N2`, the GI50 is 19.1 µM (inactive) with MCF7; 14.1 µM (inactive) with SK-MEL-28; 33.7 µM (inactive) in the assay on 786-0; 20 µM (inactive) with OVCAR-3; 12.3 µM (inactive) in the assay on CCRF-CEM; 35 µM (inactive) with T47D. Moreover, the GI50 in the assay on ACHN was 25.4 µM (inactive); in the assay on MDA-MB-435, 13.7 µM (inactive); in the assay with SNB-19 it was 24.2 µM (inactive); with KM12 it was 12.3 µM (inactive); with HCT-116, 30.9 µM (inactive); with DU-145 it was > 50 µM (inactive). Also, the GI50 with HL-60 is 0.0912 µM (active); in the assay on SK-MEL-5 it was 24.4 µM (inactive); in the assay on SW-620, 18.1 µM (inactive); in the assay on UO-31, 21.8 µM (inactive); in the assay on MDA-N, 30.2 µM (inactive); in the assay on UACC-257 it was 31.7 µM (inactive). The GI50 with Malme-3M was > 50 µM (inactive).
In the case of `O=C1CC2(CCNCC2)C(=O)N1N1CCOCC1`, the GI50 in the assay on SNB-75, in the assay on MCF7, in the assay with SK-MEL-28, with 786-0, in the assay with OVCAR-3 and with CCRF-CEM was > 100 µM (inactive) each time. In addition, the GI50 in the assay on T47D, with ACHN, in the assay with SNB-19, in the assay on KM12, with HCT-116 and in the assay on DU-145 was > 100 µM (inactive) each time. Further, the GI50 in the assay with HL-60, with SK-MEL-5, in the assay on SW-620, in the assay with UO-31, with MDA-N and with UACC-257 was > 100 µM (inactive) each time. Besides, the GI50 in the assay on Malme-3M is > 100 µM (inactive).
Take `C/C(=N\n1c(Cc2ccccc2)n[nH]c1=O)c1ccc([N+](=O)[O-])cc1`: the GI50 is 21 µM (inactive) in the assay on MCF7; > 100 µM (inactive) in the assay with SK-MEL-28; > 100 µM (inactive) in the assay with 786-0; > 100 µM (inactive) with OVCAR-3; 94 µM (inactive) in the assay with T47D; > 100 µM (inactive) with MDA-MB-435. In addition, the GI50 in the assay with SNB-19, in the assay on KM12, in the assay with HCT-116, with DU-145, with HL-60 and in the assay with SK-MEL-5 was > 100 µM (inactive) in each case. Moreover, the GI50 in the assay on SW-620, in the assay on UO-31, in the assay with MDA-N, in the assay with UACC-257 and in the assay on Malme-3M was > 100 µM (inactive) in each case.
Regarding `CCOc1ccc(C(c2c(O)c3ccccc3oc2=O)c2c(O)c3ccccc3oc2=O)cc1`, the GI50 was 46.6 µM (inactive) in the assay with MCF7; 80 µM (inactive) in the assay with SK-MEL-28; 78.2 µM (inactive) with 786-0; 43.8 µM (inactive) with OVCAR-3; 27 µM (inactive) with CCRF-CEM; 41.4 µM (inactive) with T47D. Besides, the GI50 with ACHN is 74.6 µM (inactive); in the assay with MDA-MB-435, 70.3 µM (inactive); in the assay on SNB-19, 91 µM (inactive); in the assay on KM12, 56.9 µM (inactive); in the assay on HCT-116, 48.4 µM (inactive); in the assay on DU-145, > 100 µM (inactive). Further, the GI50 in the assay with HL-60 was 19.9 µM (inactive); in the assay with SK-MEL-5, 44.5 µM (inactive); in the assay with SW-620, 79.4 µM (inactive); in the assay with UO-31 it was 20.5 µM (inactive); in the assay with MDA-N it was 60 µM (inactive); in the assay with UACC-257 it was 35.6 µM (inactive). In the assay with Malme-3M, the GI50 was 48.8 µM (inactive).
For `COc1ccc(N/N=C2\CCOc3ccc(C)cc3C2=O)cc1`, the GI50 in the assay with MCF7 is 14.4 µM (inactive); with SK-MEL-28 it was 32.3 µM (inactive); with 786-0 it was 17.4 µM (inactive); in the assay with OVCAR-3, 43.2 µM (inactive); with CCRF-CEM, 16.3 µM (inactive); in the assay on T47D it was 2.14 µM (inactive). Moreover, the GI50 was 12.4 µM (inactive) in the assay on ACHN; 3.18 µM (inactive) with MDA-MB-435; 39.7 µM (inactive) in the assay on SNB-19; 5.08 µM (inactive) in the assay on KM12; 19.5 µM (inactive) with HCT-116; 51.3 µM (inactive) in the assay with DU-145. Besides, the GI50 in the assay with HL-60 is 11.9 µM (inactive); with SK-MEL-5, 19.1 µM (inactive); with SW-620 it was 20 µM (inactive); in the assay on UO-31 it was 24 µM (inactive); with MDA-N it was 3.98 µM (inactive); in the assay on UACC-257, 14.9 µM (inactive). For the same compound, the GI50 with Malme-3M was 11.1 µM (inactive).
